Patent US20100028427A1, “IMMEDIATE RELEASE FORMULATIONS OF 1-AMINOCYCLOHEXANE COMPOUNDS, MEMANTINE AND NERAMEXANE” (Forest Laboratories, Inc., priority 2004, published 2010)

Experiment: Solubility and permeability (Biopharmaceutical Classification System)
Assay type: physicochemical

solubility: highly soluble
SMILES: CC12CC3CC(C)(C1)CC(N)(C3)C2.Cl [Memantine HCl, 1-amino-3,5-dimethyladamantane hydrochloride]
